The text below walks through data of US8455499B2, “Alkyne antagonists of lysophosphatidic acid receptors” (Amira Pharmaceuticals, Inc., priority 2008, dated 2013).

For orientation: IC50 means the concentration that gives 50% inhibition.

The test deals with T1, human LPA1 (Homo sapiens, UniProt Q92633).
T1 construct: the full-length cDNA for human LPA1 was obtained by PCR of the reverse transcription reaction; expressed in transfected cells
T1 sequence (Q92633 whole entry): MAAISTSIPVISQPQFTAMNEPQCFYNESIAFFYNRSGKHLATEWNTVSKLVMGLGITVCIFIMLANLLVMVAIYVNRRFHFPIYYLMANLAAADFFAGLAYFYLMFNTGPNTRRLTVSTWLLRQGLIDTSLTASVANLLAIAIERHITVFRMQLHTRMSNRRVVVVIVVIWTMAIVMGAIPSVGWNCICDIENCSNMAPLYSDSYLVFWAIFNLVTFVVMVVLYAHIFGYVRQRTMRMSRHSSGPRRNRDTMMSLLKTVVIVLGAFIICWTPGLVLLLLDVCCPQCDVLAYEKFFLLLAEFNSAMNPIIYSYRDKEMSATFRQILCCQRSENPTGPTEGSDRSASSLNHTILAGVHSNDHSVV
Kind of test: HLPA1 Ca Flux assay (LPA1 calcium flux assay). The settings on record: CHO cells stably expressing human LPA1; stimulated by 10 nM LPA; intracellular Ca2+. The format is cell-based. As for the experimental part: A 1.1 kb cDNA encoding the human LPA1 receptor was cloned from human lung. Human lung RNA (Clontech Laboratories, Inc. USA) was reverse transcribed using the RETROscript kit (Ambion, Inc.) and the full-length cDNA for human LPA1 was obtained by PCR of the reverse transcription reaction. The nucleotide sequence of the cloned human LPA1 was determined by sequencing and confirmed to be identical to the published human LPA1 sequence (An et al. Biochem. Biophys. Res. Commun. 231:619 (1997). The cDNA was cloned into the pCDNA5/FRT expression plasmid and transfected in CHO cells using lipofectamine 2000 (Invitrogen Corp., USA). Clones stably expressing human LPA1 were selected using hygromycin and identified as cells that show Ca-influx in response to LPA.
Human LPA1 or LPA3 expressing CHO cells are seeded at 20,000-45,000 cells per well in a 96-well poly-D-lysine coated plate one or two days before the assay. Prior to the assay, the cells are washed once with PBS and then cultured in serum-free media overnight. On the day of the assay, a calcium indicator dye (Calcium 4, Molecular Devices) in assay buffer (HBSS with Ca^2+ and Mg^2+ and containing 20 mM Hepes and 0.3% fatty-acid free human serum albumin) is added to each well and incubation continued for 1 hour at 37° C. 10 μl of test compounds in 2.5% DMSO are added to the cells and incubation continued at room temperature for 30 minutes. Cells are the stimulated by the addition of 10 nM LPA and intracellular Ca^2+ measured using the Flexstation 3 (Molecular Devices). IC50s are determined using Graphpad prism analysis of drug titration curves.
In general terms: Calcium assays in cells follow changes in intracellular calcium, usually with a dye or a luminescent sensor.
Regarding `Cc1noc(-c2ccc(C#CCCC(=O)O)cc2)c1NC(=O)OC(C)c1ccccc1Cl` (centres unmarked) [Compound 1-1, 5-(4-{4-[1-(2-Chloro-phenyl)-ethoxycarbonylamino]-3-methyl-isoxazol-5-yl}-phenyl)-pent-4-ynoic acid], the IC50 is below 300 nM.

As to `Cc1noc(-c2ccc(C#CCCCC(=O)O)cc2)c1NC(=O)OC(C)c1ccccc1Cl` (centres unmarked) [Compound 1-2, 6-(4-{4-[1-(2-Chloro-phenyl)-ethoxycarbonylamino]-3-methyl-isoxazol-5-yl}-phenyl)-hex-5-ynoic acid], the IC50 is below 300 nM. As for `Cc1noc(-c2ccc(C#CCCCCC(=O)O)cc2)c1NC(=O)OC(C)c1ccccc1Cl` (centres unmarked) [Compound 1-3, 7-(4-{4-[1-(2-Chloro-phenyl)-ethoxycarbonylamino]-3-methyl-isoxazol-5-yl}-phenyl)-hept-6-ynoic acid], the figure is below 300 nM; as for `Cc1noc(-c2ccc(C#CCC(C)(C)C(=O)O)cc2)c1NC(=O)OC(C)c1ccccc1Cl` (centres unmarked) [Compound 1-4, 5-(4-{4-[1-(2-Chloro-phenyl)-ethoxycarbonylamino]-3-methyl-isoxazol-5-yl}-phenyl)-2,2-dimethyl-pent-4-ynoic acid], below 300 nM.

On to `Cc1noc(-c2ccc(C#CCn3ncc(C(=O)O)c3C(F)(F)F)cc2)c1NC(=O)OC(C)c1ccccc1Cl` (centres unmarked) [Compound 2-1, 1-[3-(4-{4-[1-(2-Chloro-phenyl)-ethoxycarbonylamino]-3-methyl-isoxazol-5-yl}-phenyl)-prop-2-ynyl]-5-trifluoromethyl-1H-pyrazole-4-carboxylic acid], for which the IC50 was above 1000 nM.

Turning to `Cc1noc(-c2ccc(C#CCn3cc(C(=O)O)cn3)cc2)c1NC(=O)OC(C)c1ccccc1Cl` (centres unmarked) [Compound 2-2, 1-[3-(4-{4-[1-(2-Chloro-phenyl)-ethoxycarbonylamino]-3-methyl-isoxazol-5-yl}-phenyl)-prop-2-ynyl]-1H-pyrazole-4-carboxylic acid], the IC50 lay within 300 to 1000 nM.

For `Cc1noc(-c2ccc(C#CCn3cnc(C(=O)O)c3)cc2)c1NC(=O)OC(C)c1ccccc1Cl` (centres unmarked) [Compound 2-3, 1-[3-(4-{4-[1-(2-Chloro-phenyl)-ethoxycarbonylamino]-3-methyl-isoxazol-5-yl}-phenyl)-prop-2-ynyl]-1H-imidazole-4-carboxylic acid], the IC50 was below 300 nM.

Consider `Cc1noc(-c2ccc(C#CCn3cncn3)cc2)c1NC(=O)OC(C)c1ccccc1Cl` (centres unmarked) [Compound 3-1], for which the 50% inhibitory concentration (IC50) is below 300 nM.
